Assay results reported in patent US12016334B2, “Composition comprising sulphated galactose, and implementations thereof” (priority 2018, dated 2024).

Test system: Alternaria solani
Assay: Detached tomato leaf antifungal assay
Assay type: in vivo
Conditions: for size of the fungus induced damage compared to untreated control: 80 mg/L spray

| SMILES | fungal lesion size compared to untreated control (8 mg/L spray) | size of the fungus induced damage compared to untreated control |
| --- | --- | --- |
| O=C[C@H](O)[C@@H](O)[C@@H](OS(=O)(=O)O)[C@H](O)CO [Gal-S, D-galactose-4-O-sulphate] | does not show significant reduction in the fungal lesion size | significant reduction in the size of the fungus induced damage |
| O=Cc1ccc(CO)o1 [HMF, Hydroxymethylfurfural] | – | significant reduction in the size of the fungus induced damage |
